Assay results taken from publication PMC6005341, “Identification of “sarsasapogenin-aglyconed” timosaponins as novel Aβ-lowering modulators of amyloid precursor protein processing” (Chemical Science, 2016).

Test system: γ-secretase-mediated cleavage of Notch1
Experiment: Notch cleavage by γ-secretase in N2A-APPswe cells transfected with NotchΔE (immunoblot)
Assay type: cell-based
Details: 18 h
Experimental: rabbit antibody (Millipore). The immunoreactivities were detected using enhanced chemiluminescence reagents (GE Health care).
For examination of notch cleavage by γ-secretase, N2A-APPswe cells were transfected with myc-tagged NotchΔE construct (pSC2 EMV-6MT, provided by Prof. Raphael Kopan, Washington University, St. Louis, MO) using Fugene HD (Roche). Cells were then treated with timosaponins for 18 h and the expression of NotchΔE and NICD were examined by immunoblot analysis using myc-tagged antibodies.
Aβ ELISA: Aβ concentrations in conditioned medium were assayed using ELISA kits for human Aβ40, human Aβ42 (ultrasensitive) (Invitrogen), human Aβ38 (MyBioSource) (in N2A-APPswe cells) or Wako High Sensitive Aβx-42 ELISA kit (in Rat primary cortical neuron culture). The viability of the N2A-APPswe and Primary cortical neurons were determined by MTT and LDH release assays, respectively. No significant effect of viability of the neuron […]
β-Secretase assays: Confluent N2A-APPswe cells were harvested and homogenized with 50 mM MES, pH5.5. […] The β-secretase activities were assayed by adding 10 µM fluorogenic β-secretase substrate (Millipore) to the reaction mixtures and the fluorescence (excitation, 380; emission, 460) were measured. β-Secretase assays were also performed using purified BACE1 (Millipore) at 100 ng in a buffer containing 50 mM MES, pH 5.5. […]

C[C@H](NC(=O)Cc1cc(F)cc(F)c1)C(=O)N[C@H](C(=O)OC(C)(C)C)c1ccccc1 [DAPT]
production of NICD: completely blocked
